The source of these data is patent US4996219A, “Imidazolidine derivatives as immunosuppressives” (Boehringer Mannheim GmbH, priority 1988, dated 1991).

In brackets after ≈: the same amount, converted by molar mass. Several values for one entry are separate records, joined by “and”; a condition that tells them apart may be missing. Equal entries are not always repeated. Some results are limits rather than exact numbers.

Usually IC50 stands for the concentration that inhibits the measured activity by half. Read a low IC50 as greater potency.

Test [1] deals with Meth A fibrosaccoma cell line. The test can be described thus: Tumor-growth Inhibition Test (TGI). The test is classed as cell-based, mice. The conditions noted are these: 48 h, 3H thymidine incorporation, Imexon and Ex. 1: mean ± standard deviation of n experiments, others: single tests No. 1-3; for IC50: Mus musculus, Meth-A. On the procedure:
(b) Tumor-growth Inhibition Test
A Meth A fibrosaccoma cell line is passaged weekly as ascites in mice. After the ascites is punctured, the cells are washed and adjusted to a cell density of 5×10^4 vital cells/ml in the aforementioned medium. 200 /μl of this suspension are pipetted into the cavities of a microtitration plate and solution of the substances to be tested are added as above. 3 hours before the end of the 48 h incubation period ^3 H thymidine is added. The proliferation of the individual cultures is determined by the incorporated radioactive thymidine.
(§1) For the upper two compounds the means plus standard deviations from n experiments are shown.

A further test has as its system human T-lymphocytes. The test can be described thus: Interleukin-2 dependent proliferation of human T-lymphocytes (IL-2). It counts as cell-based. The settings on record: IL-2 stimulated, 48 h, 3H thymidine incorporation, Imexon and Ex. 1: mean ± standard deviation of n experiments, others: single tests No. 1-3; for IC50: Homo sapiens, T-lymphocyte. On the procedure:
(c) Interleukin-2 dependent proliferation of human T-lymphocytes (IL-2)
The mononuclear cell fraction is separated from heparinized human whole blood by means of a Ficoll gradient. After washing twice, the cell number is adjusted to 1×10^6 ml and incubation is carried out with 3 /μg/ml of Concanavalin A for 3 days. After washing twice, the cell number is set to 5×10^5 cells/ml. 160 /μl of this cell suspension are incubated with 20 /μl IL-2 and 20 /μl of a dilution of the test substance in microtitration plates for a total of 48 h. 4 hours before the end of incubation, ^3 H thymidine is added. The proliferation of the cultures is determined by means of the incorporated radioactivity.
as §1

For another test, the system named is human B lymphocytes. The test is described as follows: B-cell growth factor dependent proliferation of human B lymphocytes (BCGF). The test is classed as cell-based. The settings on record: BCGF stimulated, 140 h, 3H thymidine incorporation, Imexon and Ex. 1: mean ± standard deviation of n experiments, others: single tests No. 1-3; for IC50: Homo sapiens, Lymphocyte. The source says: (d) B-cell growth factor dependent proliferation of human B lymphocytes (BCGF). The macrophage/monocytes are removed from the mononuclear cell fraction (see above) by adhesion to plastic petri dishes. T lymphocytes are separated by rosetting with neuraminidase-treated sheep erythrocytes. The enriched human B-lymphocyte population so obtained is adjusted to 3×10^5 /ml. 160 /μl of this suspension together with 10 /μl of BCGF (B cell growth factor) and 20 /μl of the substance dilution to be tested are incubated for a total of 140 h. 16 h before the end of incubation, ^3 H thymidine is added and analysis is carried out as already described. […] For the upper two compounds the means plus standard deviations from n experiments are shown.
On the technique in general: Dividing cells build labelled thymidine or BrdU into new DNA.

The next test concerns Mice splenocytes. The test can be described thus: Concanavalin-A induced lymphocyte proliferation (LPT). The test is classed as cell-based. On the procedure: (a) Concanavalin-A induced lymphocyte proliferation (LPT)
Mice splenocytes are adjusted in RPMI 1640 medium (with conventional additions of streptomycin, penicillin, L-glutamine and 10% fetal calf serum) to a cell density of 2×10^6 viable cells per ml. 200 μl of this cell suspension are mixed with 20 μl of an 11-fold concentrated solution of the substance to be tested. 0,5 /μg of Concanavalin A in 10 μl of phosphate buffered saline solution (PBS) are added as mitogenic stimulus to each culture. 5 hours before the end of the 48 h incubation period, the individual cultures receive 20 /μl of a 3H-thymidine solution and the proliferation of the cells is determined by means of incorporated radioactivity.
as §1

The mark [2] stands for this setting: Concanavalin A stimulated, 48 h, 3H-thymidine incorporation; Imexon and Ex. 1: mean ± standard deviation of n experiments, others: single tests No. 1-3.
[3] abbreviates: Mus musculus, Splenocyte, Concanavalin A stimulated, 48 h, 3H-thymidine incorporation; Imexon and Ex. 1: mean ± standard deviation of n experiments, others: single tests No. 1-3.

For the compound `C=C1NC(=O)N(c2ccccc2)C1=N` [Ex. BV17, 3-phenyl-4-imino-5-methyleneimidazolidin-2-one], in test [1], the “IC50 TGI” value was 2,1 /μg/ml and 3,5 /μg/ml; the IC50 is below 3 µg/mL.

In the case of `C=C1NC(=O)N(Cc2ccncc2)C1=N` [Ex. BV16, 3-(4-pyridylmethyl)-4-imino-5-methyleneimidazolidin2-one], in test [1], the “IC50 TGI” value is 5,1 /μg/ml and 5,5 /μg/ml; half-maximal inhibition (IC50) required 3.9 µg/mL (≈ 19.3 µM). For the same compound, in the test with human T-lymphocytes, it took 3.5 µg/mL (≈ 17.3 µM) to reach half-maximal inhibition (IC50) and the “IC50 IL 2” value is reported as 4,8 /μg/ml.

Compound `C=C1NC(=O)N(Cc2ccccc2)C1=N` [Ex. 4, 3-Benzyl-4-imino-5-methyleneimidazolidin-2-one] registered an IC50 in test [1] of 2.8 µg/mL (≈ 13.9 µM). Besides, in the test with human B lymphocytes, the “IC50 BCGF” value is given as 1,6 /μg/ml and the half-maximal inhibitory concentration (IC50) is below 3 µg/mL.

For the compound `C=C1NC(=O)NC1=N` [Ex. 1, 4-Imino-5-methyleneimidazolidin-2-one], the IC50 in the test with Mice splenocytes (Mus musculus, Splenocyte, 48 h, Concanavalin A stimulated, 3H-thymidine incorporation, Imexon and Ex. 1: mean ± standard deviation of n experiments, others: single tests No. 1-3) was 3.9 µg/mL (≈ 35.1 µM); in test [1] it was above 10.3 µg/mL; in the test on human T-lymphocytes, 2.6 µg/mL (≈ 23.4 µM); with human B lymphocytes, 1.9 µg/mL (≈ 17.1 µM).

As to `CC(C)=C1NC(=O)NC1=N` [Ex. 3, 4-Imino-5-isopropylideneimidazolidin-2-one], the “IC50 LPT” value in the test with Mice splenocytes (setting [2]) was 20,7 /μg/ml and > 10 /μg/ml.

Turning to `CC=C1NC(=O)NC1=N` [Ex. 2, 4-imino-5-ethylideneimidazolidin2-one], in the test with Mice splenocytes (setting [2]), the “IC50 LPT” value is 11,1 /μg/ml. The IC50 with Mice splenocytes (setting [3]) was 12 µg/mL (≈ 95.9 µM); in test [1], 22.6 µg/mL (≈ 181 µM); in the test on human T-lymphocytes, above 10 µg/mL. Further, the “IC50 TGI” value in test [1] was above 30 µg⁻¹ mL⁻¹.

Regarding `N=C1NC(=O)N2CC12` (centres unmarked) [Imexon, 4-imino-1,3-diazabicyclo[3.1.0]hexan-2-one, reference compound], the IC50 with Mice splenocytes (setting [3]) turned out to be 6.3 µg/mL (≈ 56.7 µM); in test [1] it was 11.3 µg/mL (≈ 102 µM); with human T-lymphocytes, 5.1 µg/mL (≈ 45.9 µM); with human B lymphocytes, 0.9 µg/mL (≈ 8.1 µM).

Compound `C=C1NC(=O)N(CCC)C1=N` [Ex. BV12, 3-n-propyl-4-imino-5-methyleneimidazolidin-2-one] displayed an IC50 in test [1] of 7.5 µg/mL (≈ 49 µM). Besides, in the test with human T-lymphocytes, the IC50 came to 5.1 µg/mL (≈ 33.3 µM) and the “IC50 IL 2” value is given as 4,6 /μg/ml. In the test with human B lymphocytes, the “IC50 BCGF” value is listed as 2,6 /μg/ml and the concentration for half-maximal inhibition (IC50) is 3.2 µg/mL (≈ 20.9 µM).

In the test with human B lymphocytes, `C=C1NC(=O)N(C2CCCCC2)C1=N` [Ex. BV14, 3-cyclohexyl-4-imino-5-methyleneimidazolidin-2-one] yielded an IC50 below 3 µg/mL.

For the compound `C=C1NC(=O)N(C)C1=N` [Ex. BV11, 3-methyl-4-imino-5-methyleneimidazolidin-2-one], in test [1], the “IC50 TGI” value is given as 2,3 /μg/ml and inhibition was half-maximal at 4.2 µg/mL (≈ 33.6 µM) (IC50). The compound further showed an IC50 with human T-lymphocytes of at most 3 µg/mL.
